Experimental data taken from patent EP4623908A1, “USE OF (-)-EPIGALLOCATECHIN GALLATE COMPOUND” (CF Pharmtech, Inc., priority 2022, dated 2024).

Tested on: Pulmonary Fibrosis Induced by Bleomycin in Rats
Experiment: Bleomycin-induced pulmonary fibrosis model in rats (Example 5)
Type: in vivo, SD rats
Conditions: for Hydroxyproline Content: rat lung tissue, Mean ±SEM
Protocol: This study aims to compare the effects of different administration methods, including oral gavage of EGCG, tracheal nebulization of pirfenidone solution, and tracheal nebulization of EGCG at different doses, on the collagen content in lung tissues and pathological observations of rats with bleomycin-induced pulmonary fibrosis. The therapeutic effect of inhaled EGCG on rat pulmonary fibrosis was evaluated.
The solvents for the EGCG nebulization solution, modeling agents, and their solvents are as described in Example 4. The positive control drug is pirfenidone (purity 99%, pharmaceutical grade), with the solvent components consisting of NaCl and citric acid, forming a clear liquid.
SPF-grade SD rats, 6-9 weeks old with a weight of 200-300g, totaling 88 rats, were randomly divided into the following groups: • Sham operation group (normal control) (8 rats) • Pulmonary fibrosis model control group (10 rats) • Oral gavage EGCG group 1 (10 rats) • Oral gavage EGCG group 2 (10 rats) • Tracheal Nebulization EGCG solution groups 1-4 (10 rats per group, total 40 rats) • Tracheal Nebulization pirfenidone solution group (10 rats)
On D1, the normal control group was administered solvent 2 (saline injection solution, 1 mL/kg) via tracheal nebulization, while all other groups were administered bleomycin (2.5 mg/kg, 1 mL/kg) via tracheal nebulization twice a day (morning and afternoon) to establish the model. On D8, the body weights of the animals were recorded. From D10 to D28, the normal control and pulmonary fibrosis model groups were treated with solvent 1 via tracheal nebulization, while the remaining groups were administered EGCG or pirfenidone once daily at the following doses and administration methods: • Oral gavage EGCG group 1 and 2: 30 mg/kg, 60 mg/kg • Tracheal Nebulization EGCG group 1-4: 0.05 mg/kg, 0.4 mg/kg, 0.8 mg/kg, 1.6 mg/kg • Tracheal Nebulization pirfenidone solution group: 0.9 mg/kg (reference dose from M.W. Surber et al., ATS POSTER, 2014)
On D29, all animals were euthanized for dissection. During the necropsy, the lungs, trachea, and bronchi were examined for abnormalities. Left lung tissue was preserved at below -60°C for hydroxyproline content detection, and right lung tissue was prepared for pathological sectioning. Hematoxylin and eosin (HE) staining and Masson staining were performed for pathological morphological observations and fibrosis evaluation.
All groups were compared to the model group using statistical analysis via Kruskal-Wallis test. The results are indicated as follows: • *P < 0.05: statistically significant difference • **P < 0.01: highly significant difference • ***P < 0.001: extremely significant difference • ****P < 0.0001: extremely highly significant difference

## O=C(O[C@@H]1Cc2c(O)cc(O)cc2O[C@@H]1c1cc(O)c(O)c(O)c1)c1cc(O)c(O)c(O)c1 [EGCG, (-)-Epigallocatechin gallate]
Inhalation 0.05 (P < 0.05), 0.4 (P < 0.0001), 0.8 and 1.6 mg/kg (P < 0.001)
  hydroxyproline content in rat lungs, difference from the model group: significantly reduced
Oral administration 30 mg/kg, 60 mg/kg
  hydroxyproline content in rat lungs, difference from the model group: not statistically significant
Inh 0.05mg/kg once daily D10 to D28
  Hydroxyproline Content: 0.528 ± 0.038 µg/µL
Inh 0.4mg/kg once daily D10 to D28
  Hydroxyproline Content: 0.433 ± 0.023 µg/µL
Inh 0.8mg/kg once daily D10 to D28
  Hydroxyproline Content: 0.485 ± 0.027 µg/µL
Inh 1.6 mg/kg once daily D10 to D28
  Hydroxyproline Content: 0.465 ± 0.028 µg/µL
PO 30mg/kg once daily D10 to D28
  Hydroxyproline Content: 0.608 ± 0.012 µg/µL
PO 60mg/kg once daily D10 to D28
  Hydroxyproline Content: 0.546 ± 0.026 µg/µL
